According to patent publication US8367687B2, “Pyrazole derivatives” (Novartis AG, priority 2007, dated 2013):
Where two headings read alike, the source gives them in different places.

Assays:
p-pRb/S780 = p-pRb/S780 ELISA Cellular Assay (CDK4 ELISA assay); format: cell-based; conditions: cells treated for 24 hrs
Description: Biological Activity p-pRb/S780 ELISA Cellular Assay
Maxisorp plates (Nunc 442404) are coated with 50 ul of 1 ug/mL total phospholated Retinoblast Protein (pRb) antibody (4H1 Cell Signaling 9309L) diluted in DPBS (Phosphate Buffered Saline) overnight at 4° C. The next day plates are blocked with Superblock in TBST (Pierce 37535) for one hour to overnight—changing block once during that time. Cells are plated at 50-60% confluency in a 96 well plate (Corning 3585) in 100 uL complete media (media containing fetal bovine serum (Gibco 1600-044), 2 mM L-Glutamine (Gibco 25030), and 1% Penicillin/Streptomycin (Gibco 15140-122) and grown overnight in a humidified chamber at 37° C. and 5% CO2. Compounds (in DMSO) are diluted in media to create a 7 point dilution series of compound with concentrations ranging from 110 uM to 0.027 uM. 10 ul of the diluted compounds are added to the cells, with final concentrations on cells ranging from 10 uM to 0.002 uM. Cells are treated for 24 hrs in a humidified chamber at 37° C. and 5% CO2. Following compound incubation, cells are lysed with 40 uL/well lysis buffer (50 mM Tris-HCL pH 7.5 (Invitrogen 15567-027), 120 mM NaCl (Promega V4221), 1 mM EDTA (Gibco 15575-038), 6 mM EGTA (Fisher 02783-100), 1% Nonidet P40 (Fluka R02771). Plates are placed on Titerplate shaker (Labline model 4625) for 5 minutes at 4° C. to lyse cells. After lysis, 10 ul of cell lysate and 50 ul 1×PBS/10% Superblock (Gibco 10010 and Pierce 37535) is added to each well of the precoated and blocked Maxisorp plate and allowed to bind at room temperature for 2 hours on Oribtron Rotator II (Boekel Industries Model 260250). Plates are then washed 3× with 1×TBST (Teknova T9201) using Biotek platewasher equipped with a Biostack. The final wash is not aspirated. The final wash is removed by flicking off and tapping plate on paper towels. ppRbS780 antibody (Cell Signaling 9307L) is diluted 1:1000 in 1×PBS/10% Superblock (Gibco 10010 and Pierce 37535) and 50 ul is added to each well. Plates are then incubated 1 hour on Oribtron Rotator II (Boekel Industries Model 260250). Plates are then washed as previously described. Goat anti-rabbit HRP (Promega W401B) is diluted 1:2500 1×PBS/10% Superblock (Gibco 10010 and Pierce 37535) and 50 ul is added to each well. Plates are then incubated 30 minutes on Oribtron Rotator II. Plates are then washed as previously described. 50 uL Ultra TMB ELISA (Pierce 34028) is then added to each well. Plates are incubated 5-20 minutes until blue color develops. 50 ul 2M Sulfuric acid (Mallinckrodt 2468-46) is then added to each well to stop the reaction. Absorbance at 450 nm for each plate is read on Spectramax Plus (Molecular Devices).

hCDK1/B = hCDK1/B (Homo sapiens, UniProt P06493); assay: hCDK1/B; format: biochemical
Chain of hCDK1/B (P06493 whole entry): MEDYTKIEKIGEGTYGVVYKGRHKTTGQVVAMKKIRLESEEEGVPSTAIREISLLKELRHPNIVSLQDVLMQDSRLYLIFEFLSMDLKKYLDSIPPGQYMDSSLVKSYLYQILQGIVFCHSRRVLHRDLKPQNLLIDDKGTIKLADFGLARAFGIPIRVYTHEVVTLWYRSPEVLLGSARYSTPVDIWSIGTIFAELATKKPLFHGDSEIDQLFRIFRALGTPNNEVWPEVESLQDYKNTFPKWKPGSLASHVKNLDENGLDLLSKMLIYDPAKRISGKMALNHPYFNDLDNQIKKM
Chain of hCDK1/B (P14635 whole entry partner): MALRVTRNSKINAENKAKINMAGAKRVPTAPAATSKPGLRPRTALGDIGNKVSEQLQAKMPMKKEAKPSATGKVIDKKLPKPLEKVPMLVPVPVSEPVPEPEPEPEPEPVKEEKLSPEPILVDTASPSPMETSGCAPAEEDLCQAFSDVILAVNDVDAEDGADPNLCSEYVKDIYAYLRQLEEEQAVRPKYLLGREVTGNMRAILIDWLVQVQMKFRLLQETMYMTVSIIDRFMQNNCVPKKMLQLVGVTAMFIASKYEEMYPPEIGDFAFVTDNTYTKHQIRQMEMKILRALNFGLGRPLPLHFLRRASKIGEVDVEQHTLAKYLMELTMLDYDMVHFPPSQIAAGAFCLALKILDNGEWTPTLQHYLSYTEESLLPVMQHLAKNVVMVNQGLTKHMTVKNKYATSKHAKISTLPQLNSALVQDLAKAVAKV

CDK2 cyA = CDK2 cyA (Homo sapiens, UniProt P24941); assay: CDK2 cyA IMAP; format: biochemical
CDK4 = CDK4 (Homo sapiens, UniProt P11802); assay: CDK4 HTRF; format: biochemical
Chain of CDK4 (P11802 whole entry): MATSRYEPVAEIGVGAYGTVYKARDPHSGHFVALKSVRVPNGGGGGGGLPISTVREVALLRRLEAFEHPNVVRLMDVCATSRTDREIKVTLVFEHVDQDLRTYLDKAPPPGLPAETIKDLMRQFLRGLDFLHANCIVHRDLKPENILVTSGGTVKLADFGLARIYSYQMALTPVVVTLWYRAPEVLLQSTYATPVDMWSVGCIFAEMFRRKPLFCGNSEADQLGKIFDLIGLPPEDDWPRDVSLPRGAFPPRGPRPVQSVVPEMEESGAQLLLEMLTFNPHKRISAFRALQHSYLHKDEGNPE
Chain of CDK4 (P24385 whole entry partner): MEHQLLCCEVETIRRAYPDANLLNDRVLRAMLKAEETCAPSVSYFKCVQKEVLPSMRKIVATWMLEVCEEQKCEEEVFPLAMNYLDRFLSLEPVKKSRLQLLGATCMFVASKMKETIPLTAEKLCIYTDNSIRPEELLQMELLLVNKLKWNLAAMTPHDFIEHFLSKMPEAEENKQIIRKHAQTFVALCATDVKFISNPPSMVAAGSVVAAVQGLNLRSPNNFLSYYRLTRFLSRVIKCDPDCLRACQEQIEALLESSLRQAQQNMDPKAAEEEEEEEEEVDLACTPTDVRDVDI

[1] = Table 2, read-out: p_pRb Cap EL/ IC50_ppRbinh
[2] = Table 2, read-out: CDK2cyA IMAP/ IC50
[3] = Table 2, read-out: CDK4 HTRF/ IC50
[4] = Table 1, read-out: CDK4 ELISA assay IC50
[5] = Table 1, read-out: CDK2 cyA IMAP

IC50 (p-pRb/S780; [1]) [µM]	IC50 (hCDK1/B; Table 2) [µM]	IC50 (CDK2 cyA; [2]) [µM]	IC50 (CDK4; [3]) [µM]	IC50 (p-pRb/S780; [4]) [µM]	IC50 (hCDK1/B; Table 1) [µM]	IC50 (CDK2 cyA; [5]) [µM]	IC50 (CDK4; Table 1, read-out: CDK4 HTRF) [µM]	Structure (SMILES)
< 15	< 10	< 15	< 5					Cc1n[nH]cc1-c1ccnc(NCC2CCCCCC2)n1 [Example 105]
< 1	< 0.5	< 0.5	< 0.1					CC(C)c1n[nH]cc1-c1ccnc(NC2CCc3cc(F)ccc32)n1 (centres unmarked) [Example 189]
< 1	< 5	< 5	< 0.1					CC(C)c1n[nH]c(Br)c1-c1ccnc(NC2CCN(C)CC2)n1 [Example 179]
< 5	< 5	< 0.5	< 0.5					CC(C)c1n[nH]cc1-c1ccnc(NC2CCc3cc(Cl)ccc32)n1 (centres unmarked) [Example 190]
< 15	< 5	< 10	< 5					Cc1n[nH]cc1-c1ccnc(NCCc2c[nH]c3ccccc23)n1 [Example 116]
< 15	≥ 15	≥ 15	< 15					Cc1n[nH]cc1-c1ccnc(NCCCN2CCCC2)n1 [Example 128]
< 5	≥ 15	≥ 15	< 0.1					CC(C)c1n[nH]cc1-c1ccnc(NC2CCC(C)(C)c3ccccc32)n1 (centres unmarked) [Example 188]
< 15	≥ 15	≥ 15	< 10					Cc1n[nH]cc1-c1ccnc(NCCC2CCCN2C)n1 (centres unmarked) [Example 113]
< 5	< 0.5	< 1	< 0.1					CC(C)c1n[nH]cc1-c1ccnc(NC2CCCCC2C)n1 (centres unmarked) [Example 160]
< 15	≥ 15	≥ 15	< 15					Cc1n[nH]cc1-c1ccnc(NCc2ccccn2)n1 [Example 126]
< 15	< 10	< 15	< 5					COc1ccccc1CNc1nccc(-c2c[nH]nc2C)n1 [Example 130]
< 15	≥ 15	≥ 15	< 15					Cc1n[nH]cc1-c1ccnc(NCCCN2CCCC2=O)n1 [Example 131]
< 1	< 5	< 0.5	< 0.05					CC(C)c1n[nH]cc1-c1ccnc(N[C@@H]2CCCc3ccccc32)n1 [Example 177]
< 15	< 10	< 15	< 5					Cc1cc(C)n(CCNc2nccc(-c3c[nH]nc3C(C)C)n2)n1 [Example 149]
< 15	≥ 15	≥ 15	< 10					Cc1ccc(CNc2nccc(-c3c[nH]nc3C)n2)cc1 [Example 117]
< 5	< 0.5	< 0.1	< 0.1					CC(C)CNc1nccc(-c2c[nH]nc2C(C)C)n1 [Example 163]
< 15	< 10	< 5	< 1					CCC(C)Nc1nccc(-c2c[nH]nc2C)n1 (centres unmarked) [Example 110]
< 15	≥ 15	≥ 15	< 10					Cc1n[nH]cc1-c1ccnc(NCc2ccco2)n1 [Example 122]
< 15	< 15	< 10	< 10					Cc1n[nH]cc1-c1ccnc(NCc2cccnc2)n1 [Example 127]
< 15	≥ 15	≥ 15	< 5					Cc1cc(C)cc(CNc2nccc(-c3c[nH]nc3C)n2)c1 [Example 134]
< 15	≥ 15	≥ 15	< 15					Cc1n[nH]cc1-c1ccnc(NCCCN(C)C)n1 [Example 118]
< 5	< 1	< 1	< 0.05					CC(C)c1n[nH]cc1-c1ccnc(NC2CCc3ccccc32)n1 (centres unmarked) [Example 174]
< 15	≥ 15	≥ 15	< 10					Cc1n[nH]cc1-c1ccnc(NCCN2CCCCC2)n1 [Example 111]

Further lines, the compound ahead of its results:

Structure (SMILES)	IC50 (p-pRb/S780; [1]) [µM]	IC50 (hCDK1/B; Table 2) [µM]	IC50 (CDK2 cyA; [2]) [µM]	IC50 (CDK4; [3]) [µM]	IC50 (p-pRb/S780; [4]) [µM]	IC50 (hCDK1/B; Table 1) [µM]	IC50 (CDK2 cyA; [5]) [µM]	IC50 (CDK4; Table 1, read-out: CDK4 HTRF) [µM]
CC(C)c1[nH]ncc1-c1ccnc(NCc2ccncc2)c1 [Example 22]					< 0.5	< 5	< 5	< 5
Cc1n[nH]cc1-c1ccnc(NCc2ccc3c(c2)OCO3)n1 [Example 102]	< 15	< 10	< 10	< 5				
Cc1n[nH]cc1-c1ccnc(NCCN2CCOCC2)n1 [Example 99]	< 15	≥ 15	≥ 15	< 10				
Cc1n[nH]cc1-c1ccnc(NCCc2ccccc2)n1 [Example 91]	< 15	< 10	< 10	< 1				
c1cc(-c2cn[nH]c2C2CCCC2)cc(NCCCN2CCOCC2)n1 [Example 65]					< 15	≥ 15	≥ 15	< 5
COc1ccc(CNc2nccc(-c3c[nH]nc3C)n2)cc1 [Example 100]	< 15	< 15	< 15	< 5				
Cc1n[nH]cc1-c1ccnc(NCC2CCCCC2)n1 [Example 103]	< 15	< 10	< 10	< 5				
CC(C)c1[nH]ncc1-c1ccnc(NCCN2CCCCC2)c1 [Example 31]					< 15	≥ 15	≥ 15	< 5
CC(C)c1n[nH]cc1-c1ccnc(NC2CCN(Cc3ccccc3)CC2)n1 [Example 85]	< 10	< 0.5	< 1	< 0.05				
CC(C)c1[nH]ncc1-c1ccnc(NCCN2CCCC2)c1 [Example 17]					< 15	≥ 15	≥ 15	< 5
CC(C)c1[nH]ncc1-c1ccnc(NCCC2CCCN2C)c1 (centres unmarked) [Example 42]					< 15	≥ 15	≥ 15	< 5
Cc1n[nH]cc1-c1ccnc(NC2CCC2)n1 [Example 101]	< 15	< 5	< 5	< 1				
Cc1n[nH]cc1-c1ccnc(NCCN(C)C)n1 [Example 94]	< 15	≥ 15	≥ 15	< 10				
Cc1n[nH]cc1-c1ccnc(NCc2cccc(C(F)(F)F)c2)n1 [Example 89]	< 15	< 10	< 10	< 5				
Cc1n[nH]cc1-c1ccnc(NCC2CCCO2)n1 (centres unmarked) [Example 88]	< 15	< 15	≥ 15	< 15				
Cc1n[nH]cc1-c1ccnc(NCc2ccncc2)n1 [Example 104]	< 15	< 15	< 15	< 5				
CC(C)c1[nH]ncc1-c1ccnc(NCCOc2ccccc2)c1 [Example 21]					< 15	< 10	< 10	< 5
Cc1n[nH]cc1-c1ccnc(NCc2ccccc2)n1 [Example 93]	< 15	< 10	< 15	< 5				
Cc1n[nH]cc1-c1ccnc(NC2CC2)n1 [Example 97]	< 15	< 10	< 10	< 5				
Cc1n[nH]cc1-c1ccnc(NCc2ccc(F)cc2)n1 [Example 95]	< 15	< 10	< 10	< 5				
Cc1n[nH]cc1-c1ccnc(NCCC#N)n1 [Example 96]	< 15	< 15	< 15	< 5				
